Measured values reported in ChEMBL document CHEMBL3826929, “Discovery and Preclinical Evaluation of BMS-711939, an Oxybenzylglycine Based PPARα Selective Agonist” (ACS Med Chem Lett, 2016).

Legend:
Syrian golden hamster [1] = assay: Decrease in liver triglyceride level in high fat-diet fed syrian golden hamster model of dyslipidemia at 1 mg/kg administered qd through oral gavage measured after 21 days by FPLC analysis relative to control; assay type: functional, Mesocricetus auratus; parameters: scale not given: the % may be the effect or the level left
[2] = biological target: T1, Peroxisome proliferator-activated receptor alpha (Homo sapiens, UniProt Q07869); assay: Agonist activity at full length human PPAR-alpha transfected in human HepG2 cells by luciferase reporter gene assay; assay type: cell-based
T1 sequence (Q07869 whole entry): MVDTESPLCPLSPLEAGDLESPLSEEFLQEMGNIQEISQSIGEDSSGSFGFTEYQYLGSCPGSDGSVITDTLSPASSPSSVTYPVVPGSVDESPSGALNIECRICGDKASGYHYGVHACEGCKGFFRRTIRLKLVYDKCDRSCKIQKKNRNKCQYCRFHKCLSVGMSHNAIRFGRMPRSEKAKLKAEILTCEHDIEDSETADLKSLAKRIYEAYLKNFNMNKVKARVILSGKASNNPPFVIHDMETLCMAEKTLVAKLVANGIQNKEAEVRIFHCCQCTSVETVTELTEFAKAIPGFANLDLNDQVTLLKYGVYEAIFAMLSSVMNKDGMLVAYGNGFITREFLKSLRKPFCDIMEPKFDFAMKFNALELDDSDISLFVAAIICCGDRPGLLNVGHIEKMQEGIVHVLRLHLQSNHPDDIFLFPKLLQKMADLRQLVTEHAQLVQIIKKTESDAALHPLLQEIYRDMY

Syrian golden hamster [3] = assay: Decrease in liver cholesterol level in high fat-diet fed syrian golden hamster model of dyslipidemia at 10 mg/kg administered qd through oral gavage measured after 21 days by FPLC analysis relative to control; assay type: functional, Mesocricetus auratus; parameters: scale not given: the % may be the effect or the level left
Syrian golden hamster [4] = assay: Decrease in liver cholesterol level in high fat-diet fed syrian golden hamster model of dyslipidemia at 1 mg/kg administered qd through oral gavage measured after 21 days by FPLC analysis relative to control; assay type: functional, Mesocricetus auratus; parameters: scale not given: the % may be the effect or the level left
Syrian golden hamster [5] = assay: Decrease in plasma LDL cholesterol level in high fat-diet fed syrian golden hamster model of dyslipidemia at 10 mg/kg administered qd through oral gavage measured after 21 days by FPLC analysis relative to control; assay type: functional, Mesocricetus auratus; parameters: scale not given: the % may be the effect or the level left
Syrian golden hamster [6] = assay: Decrease in plasma LDL cholesterol level in high fat-diet fed syrian golden hamster model of dyslipidemia at 3 mg/kg administered qd through oral gavage measured after 21 days by FPLC analysis relative to control; assay type: functional, Mesocricetus auratus; parameters: scale not given: the % may be the effect or the level left
[7] = Tmax in Sprague-Dawley rat at 8 mg/kg, po; assay type: ADME, organism-based; conditions: in vivo
[8] = AUC (0 to 8 hrs) in Balb/c mouse at 5 mg/kg, iv; assay type: ADME, organism-based; parameters: dose 5 mg/kg, time < 8 hr, route intravenous; conditions: in vivo
[9] = AUC (0 to 8 hrs) in dog at 1 mg/kg, iv; assay type: ADME, organism-based, Canis lupus familiaris; parameters: dose 1 mg/kg, time < 8 hr, route intravenous; conditions: in vivo
[10] = Plasma clearance in Balb/c mouse at 5 mg/kg, iv; assay type: ADME, organism-based
[11] = Plasma clearance in Sprague-Dawley rat at 4 mg/kg, iv; assay type: ADME, organism-based
[12] = Volume of distribution at steady state in dog at 1 mg/kg, iv; assay type: ADME, organism-based, Canis lupus familiaris; conditions: in vivo, read-out: Vdss
[13] = Volume of distribution at steady state in cynomolgus monkey at 1 mg/kg, iv; assay type: ADME, organism-based, Macaca fascicularis; conditions: in vivo, read-out: Vdss
[14] = Half life in Sprague-Dawley rat at 4 mg/kg, iv; assay type: ADME, organism-based; conditions: in vivo
[15] = Oral bioavailability in cynomolgus monkey at 2 mg/kg; assay type: ADME, organism-based, Macaca fascicularis; conditions: in vivo
[16] = Agonist activity at hamster PPAR-alpha; parameters: species or system Cricetinae
Liver X receptor = Liver X receptor (Homo sapiens, UniProt Q13133+P55055); assay: Agonist activity at human LXR by transactivation assay; assay type: protein assay
[17] = biological target: Peroxisome proliferator-activated receptor delta (Homo sapiens) (UniProt Q03181); assay: Agonist activity against human PPAR-delta by transactivation assay relative to standard compound
[18] = biological target: Glucocorticoid receptor (Homo sapiens) (UniProt P04150); assay: Agonist activity at human GR by transactivation assay relative to standard compound
[19] = biological target: Retinoid X receptor (Homo sapiens) (UniProt P28702+P48443+P19793); assay: Agonist activity at human RXR by transactivation assay relative to standard compound; assay type: protein assay
[20] = Protein binding in human plasma; assay type: ADME, cell-free; conditions: read-out: PPB (converted)
[21] = Protein binding in rat plasma; assay type: ADME, cell-free; conditions: read-out: PPB (converted)
Cytochrome P450 3A4 [22] = biological target: T2, Cytochrome P450 3A4 (Homo sapiens, UniProt P08684); assay: Inhibition of CYP3A4 (unknown origin); assay type: ADME
Cytochrome P450 2B6 = Cytochrome P450 2B6 (Homo sapiens, UniProt P20813); assay: Inhibition of CYP2B6 (unknown origin); assay type: ADME
Cytochrome P450 2D6 [23] = biological target: T3, Cytochrome P450 2D6 (Homo sapiens, UniProt P10635); assay: Inhibition of CYP2D6 (unknown origin); assay type: ADME
Mus musculus [24] = assay: Increase in ApoA1 level in transgenic mouse expressing human ApoA1 at 10 mg/kg administered qd through oral gavage measured after 10 days relative to vehicle-treated control; assay type: functional
[25] = biological target: Nuclear receptor subfamily 1 group I member 2 (Homo sapiens, UniProt O75469); assay: Activation of PXR (unknown origin); assay type: ADME
Cytochrome P450 2C19 = Cytochrome P450 2C19 (Homo sapiens, UniProt P33261); assay: Inhibition of CYP2C19 in human TC5 cells; assay type: ADME, cell-based
Cytochrome P450 2D6 [26] = biological target: T3, Cytochrome P450 2D6; assay: Inhibition of CYP2D6 in human TC5 cells; assay type: ADME, cell-based
Cytochrome P450 3A4 [27] = biological target: T2, Cytochrome P450 3A4; assay: Inhibition of CYP3A4 in human TC5 cells; assay type: ADME, cell-based
[28] = biological target: Voltage-gated inwardly rectifying potassium channel KCNH2 (Homo sapiens, UniProt Q12809); assay: Inhibition of human ERG by flux-based assay
Homo sapiens = species: Homo sapiens; assay: Inhibition of sodium channel (unknown origin) assessed as channel block at 10 uM and 1 Hz by electrophysiology method
CHO = assay: Clastogenecity in CHO cells; assay type: ADME, cell-based, Cricetulus griseus; conditions: chinese hamster
Salmonella typhimurium = assay: Genotoxicity in Salmonella typhimurium TA100 up to 5000 ug by Ames test; assay type: toxicity, organism-based; conditions: salmonella enterica subsp. enterica serovar typhimurium
Rhesus monkey = assay: Cardiovascular toxicity in monkey assessed as change in hemodynamic effect up to 20 mg/kg administered as single dose by telemetry test; assay type: organism-based, Macaca mulatta; conditions: in vivo
Mus musculus [29] = assay: Increase in ApoA1 level in transgenic mouse expressing human ApoA1 at 3 mg/kg administered qd through oral gavage measured after 10 days relative to vehicle-treated control; assay type: functional
Mus musculus [30] = assay: Decrease in triglyceride level in transgenic mouse expressing human ApoA1 at 50 mg/kg administered qd through oral gavage measured after 10 days relative to vehicle control; assay type: functional; parameters: scale not given: the % may be the effect or the level left
Mus musculus [31] = assay: Increase in HDL cholesterol level in transgenic mouse expressing human ApoA1 at 50 mg/kg administered qd through oral gavage measured after 10 days relative to vehicle control; assay type: functional

T3 sequence (P10635 whole entry): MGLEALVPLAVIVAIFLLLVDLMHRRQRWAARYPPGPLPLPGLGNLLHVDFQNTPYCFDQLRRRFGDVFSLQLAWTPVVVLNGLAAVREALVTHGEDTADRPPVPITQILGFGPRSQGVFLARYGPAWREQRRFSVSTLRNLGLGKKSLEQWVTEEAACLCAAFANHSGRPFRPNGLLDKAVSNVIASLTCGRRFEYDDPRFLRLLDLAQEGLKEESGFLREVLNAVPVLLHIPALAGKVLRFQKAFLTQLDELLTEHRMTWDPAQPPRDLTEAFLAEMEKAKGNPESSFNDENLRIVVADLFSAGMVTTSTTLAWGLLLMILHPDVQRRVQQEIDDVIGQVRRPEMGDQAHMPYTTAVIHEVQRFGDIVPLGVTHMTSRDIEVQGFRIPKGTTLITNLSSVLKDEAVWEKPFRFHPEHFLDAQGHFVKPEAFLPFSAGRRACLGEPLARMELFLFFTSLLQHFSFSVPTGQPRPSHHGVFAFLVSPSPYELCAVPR
T2 sequence (P08684 whole entry): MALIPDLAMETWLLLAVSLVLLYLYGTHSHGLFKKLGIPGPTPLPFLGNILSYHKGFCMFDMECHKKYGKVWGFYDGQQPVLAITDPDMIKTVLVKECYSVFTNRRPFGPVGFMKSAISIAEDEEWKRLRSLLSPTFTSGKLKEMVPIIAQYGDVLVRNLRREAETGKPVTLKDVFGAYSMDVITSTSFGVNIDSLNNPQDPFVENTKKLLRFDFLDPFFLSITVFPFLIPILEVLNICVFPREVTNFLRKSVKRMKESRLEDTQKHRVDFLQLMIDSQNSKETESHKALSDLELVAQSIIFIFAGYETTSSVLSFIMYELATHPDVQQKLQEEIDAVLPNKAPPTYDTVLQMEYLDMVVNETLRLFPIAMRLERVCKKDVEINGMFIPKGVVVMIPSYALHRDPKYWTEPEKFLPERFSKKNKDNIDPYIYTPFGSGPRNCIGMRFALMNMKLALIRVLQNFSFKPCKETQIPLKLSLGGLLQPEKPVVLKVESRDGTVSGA
Cytochrome P450 2C19, sequence (P33261 whole entry): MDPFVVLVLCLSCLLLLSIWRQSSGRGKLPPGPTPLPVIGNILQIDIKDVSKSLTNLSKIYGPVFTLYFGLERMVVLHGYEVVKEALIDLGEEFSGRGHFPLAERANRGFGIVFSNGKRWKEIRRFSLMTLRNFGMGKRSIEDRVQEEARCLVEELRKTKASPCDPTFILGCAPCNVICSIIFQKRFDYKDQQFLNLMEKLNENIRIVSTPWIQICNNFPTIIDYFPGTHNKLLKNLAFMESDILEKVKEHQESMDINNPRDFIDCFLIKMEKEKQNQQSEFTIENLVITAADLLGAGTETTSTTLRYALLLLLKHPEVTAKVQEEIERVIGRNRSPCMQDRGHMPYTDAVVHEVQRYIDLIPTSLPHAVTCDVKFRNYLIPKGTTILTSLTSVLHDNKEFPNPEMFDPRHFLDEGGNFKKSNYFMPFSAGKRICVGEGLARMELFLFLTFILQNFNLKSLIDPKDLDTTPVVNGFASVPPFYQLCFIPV
Cytochrome P450 2B6, sequence (P20813 whole entry): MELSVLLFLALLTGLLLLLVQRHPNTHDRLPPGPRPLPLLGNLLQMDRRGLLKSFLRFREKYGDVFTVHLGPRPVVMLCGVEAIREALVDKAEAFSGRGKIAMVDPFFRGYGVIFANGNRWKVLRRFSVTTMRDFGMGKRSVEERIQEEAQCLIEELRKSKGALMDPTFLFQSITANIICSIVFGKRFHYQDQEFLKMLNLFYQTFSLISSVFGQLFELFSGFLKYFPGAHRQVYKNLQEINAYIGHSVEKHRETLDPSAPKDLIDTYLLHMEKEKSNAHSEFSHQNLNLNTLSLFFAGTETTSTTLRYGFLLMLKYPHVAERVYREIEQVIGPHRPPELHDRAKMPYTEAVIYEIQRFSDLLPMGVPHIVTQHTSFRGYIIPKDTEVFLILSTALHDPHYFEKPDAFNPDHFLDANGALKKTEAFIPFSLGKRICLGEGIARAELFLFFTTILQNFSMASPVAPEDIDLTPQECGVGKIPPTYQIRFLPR
Retinoid X receptor (Homo sapiens), sequence (P19793 whole entry, looked up): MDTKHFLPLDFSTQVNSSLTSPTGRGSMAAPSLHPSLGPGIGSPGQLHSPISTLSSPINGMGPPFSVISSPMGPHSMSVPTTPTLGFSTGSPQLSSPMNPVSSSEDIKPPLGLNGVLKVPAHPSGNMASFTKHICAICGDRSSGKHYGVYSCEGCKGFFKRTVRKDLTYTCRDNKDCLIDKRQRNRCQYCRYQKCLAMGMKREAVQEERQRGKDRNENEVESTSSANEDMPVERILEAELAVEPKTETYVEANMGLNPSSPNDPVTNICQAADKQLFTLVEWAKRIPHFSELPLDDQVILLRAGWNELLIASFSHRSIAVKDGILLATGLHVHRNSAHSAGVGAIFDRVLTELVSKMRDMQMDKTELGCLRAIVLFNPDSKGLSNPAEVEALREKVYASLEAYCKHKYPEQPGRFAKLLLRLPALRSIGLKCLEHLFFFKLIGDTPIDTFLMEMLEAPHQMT
Retinoid X receptor (Homo sapiens), sequence (P28702 whole entry, looked up): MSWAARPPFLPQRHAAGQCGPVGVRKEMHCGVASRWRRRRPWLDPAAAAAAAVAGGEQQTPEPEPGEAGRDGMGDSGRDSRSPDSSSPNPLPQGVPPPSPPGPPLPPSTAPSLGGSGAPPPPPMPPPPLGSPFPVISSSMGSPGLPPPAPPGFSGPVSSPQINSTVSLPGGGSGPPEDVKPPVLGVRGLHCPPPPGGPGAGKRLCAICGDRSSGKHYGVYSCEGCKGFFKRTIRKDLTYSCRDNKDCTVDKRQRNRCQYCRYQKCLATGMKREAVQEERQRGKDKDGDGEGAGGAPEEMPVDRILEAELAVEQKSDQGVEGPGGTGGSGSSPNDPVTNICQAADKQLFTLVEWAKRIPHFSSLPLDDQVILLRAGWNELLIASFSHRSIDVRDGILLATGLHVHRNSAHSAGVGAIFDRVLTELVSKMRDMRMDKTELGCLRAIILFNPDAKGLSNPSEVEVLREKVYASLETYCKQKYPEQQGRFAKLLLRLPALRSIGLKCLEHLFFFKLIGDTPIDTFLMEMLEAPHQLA
Retinoid X receptor (Homo sapiens), sequence (P48443 whole entry, looked up): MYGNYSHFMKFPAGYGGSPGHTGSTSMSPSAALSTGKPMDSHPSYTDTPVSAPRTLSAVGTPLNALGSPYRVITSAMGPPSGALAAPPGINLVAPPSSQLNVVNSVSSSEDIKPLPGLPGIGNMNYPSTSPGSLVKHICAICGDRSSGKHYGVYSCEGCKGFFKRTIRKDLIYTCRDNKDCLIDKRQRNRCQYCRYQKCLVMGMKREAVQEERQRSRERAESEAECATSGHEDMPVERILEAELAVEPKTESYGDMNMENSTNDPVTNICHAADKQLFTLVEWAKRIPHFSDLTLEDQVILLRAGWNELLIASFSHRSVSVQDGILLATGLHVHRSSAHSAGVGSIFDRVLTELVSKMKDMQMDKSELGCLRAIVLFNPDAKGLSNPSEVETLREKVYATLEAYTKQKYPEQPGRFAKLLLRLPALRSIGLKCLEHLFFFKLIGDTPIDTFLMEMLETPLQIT
Voltage-gated inwardly rectifying potassium channel KCNH2, sequence (Q12809 whole entry): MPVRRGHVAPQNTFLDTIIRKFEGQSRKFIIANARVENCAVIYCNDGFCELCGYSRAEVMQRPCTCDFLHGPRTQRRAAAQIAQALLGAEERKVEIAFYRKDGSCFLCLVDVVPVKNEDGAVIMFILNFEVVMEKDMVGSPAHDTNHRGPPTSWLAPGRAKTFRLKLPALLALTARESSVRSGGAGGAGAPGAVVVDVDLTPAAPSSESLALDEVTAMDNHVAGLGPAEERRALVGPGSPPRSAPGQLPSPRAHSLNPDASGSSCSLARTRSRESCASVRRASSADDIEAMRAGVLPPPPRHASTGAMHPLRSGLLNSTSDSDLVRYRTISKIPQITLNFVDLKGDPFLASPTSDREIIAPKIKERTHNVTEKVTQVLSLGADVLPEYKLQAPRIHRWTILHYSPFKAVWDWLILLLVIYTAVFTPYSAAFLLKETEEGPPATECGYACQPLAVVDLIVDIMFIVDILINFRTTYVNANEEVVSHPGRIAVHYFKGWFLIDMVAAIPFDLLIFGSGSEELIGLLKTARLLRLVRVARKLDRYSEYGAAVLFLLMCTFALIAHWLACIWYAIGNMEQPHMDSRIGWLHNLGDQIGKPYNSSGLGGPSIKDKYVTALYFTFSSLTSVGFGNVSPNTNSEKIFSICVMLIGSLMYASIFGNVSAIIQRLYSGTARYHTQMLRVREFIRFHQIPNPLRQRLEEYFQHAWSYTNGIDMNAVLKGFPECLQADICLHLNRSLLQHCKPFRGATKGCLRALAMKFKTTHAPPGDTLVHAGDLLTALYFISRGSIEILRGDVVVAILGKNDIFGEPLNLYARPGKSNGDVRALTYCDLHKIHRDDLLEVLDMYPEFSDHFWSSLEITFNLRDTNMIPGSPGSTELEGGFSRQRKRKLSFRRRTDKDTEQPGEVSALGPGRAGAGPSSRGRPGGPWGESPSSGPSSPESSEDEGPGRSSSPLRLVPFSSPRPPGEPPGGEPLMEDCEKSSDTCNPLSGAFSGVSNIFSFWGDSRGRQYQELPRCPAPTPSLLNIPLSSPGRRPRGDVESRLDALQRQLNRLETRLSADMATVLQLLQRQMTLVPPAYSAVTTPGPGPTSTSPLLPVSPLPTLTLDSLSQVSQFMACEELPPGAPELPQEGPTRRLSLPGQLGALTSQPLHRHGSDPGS

## COC(=O)N(CC(=O)O)Cc1cc(OCc2nc(-c3ccc(Cl)cc3)oc2C)ccc1F
Syrian golden hamster [1]
  Activity: 18.7%
[2]
  EC50: 0.005 µM
Syrian golden hamster [3]
  Activity: 67.5%
Syrian golden hamster [4]
  Activity: 13%
Syrian golden hamster [5]
  Activity: 87%
Syrian golden hamster [6]
  Activity: 61%
[7]
  Tmax: 0.3 h
[8]
  AUC(0-t) at 8 h: 13 µM·h
[9]
  AUC(0-t) at 8 h: 3.5 µM·h
[10]
  clearance: 13.8 mL/min/kg
[11]
  clearance: 15.3 mL/min/kg
[12]
  Vd: 2.1 L/kg
[13]
  Vd: 3.9 L/kg
[14]
  half-life: 3.3 h
[15]
  bioavailability: 65%
[16]
  EC50: 0.178 µM
Liver X receptor
  EC50: > 25 µM
[17]
  Efficacy: < 15%
[18]
  Efficacy: < 15%
[19]
  Efficacy: < 15%
[20]
  fraction unbound: 0.003
[21]
  fraction unbound: 0.004
Cytochrome P450 3A4 [22]
  IC50: > 40 µM
Cytochrome P450 2B6
  IC50: > 40 µM
Cytochrome P450 2D6 [23]
  IC50: > 40 µM
Mus musculus [24]
  Activity: 400%
[25]
  EC60: > 50 µM
Cytochrome P450 2C19
  IC50: > 150 µM
Cytochrome P450 2D6 [26]
  IC50: > 150 µM
Cytochrome P450 3A4 [27]
  IC50: > 150 µM
[28]
  IC50: > 80 µM
Homo sapiens
  inhibition: 12%
CHO
  Activity: Non-toxic
Salmonella typhimurium
  Activity: Non-toxic
Rhesus monkey
  Activity: Non-toxic
Mus musculus [29]
  Activity: 96%
Mus musculus [30]
  Activity: 58.1%
Mus musculus [31]
  Activity: 109%
